Experimental data taken from ChEMBL document CHEMBL4602703, “Lead Optimization of a Pyrrole-Based Dihydroorotate Dehydrogenase Inhibitor Series for the Treatment of Malaria” (J Med Chem, 2020).

How the values were obtained:
[1] = target: Dihydroorotate dehydrogenase (quinone), mitochondrial (Homo sapiens, UniProt Q02127)
Plasmodium falciparum = experiment: microbe, parasite or virus in culture; conditions: 3D7, 72 h
[2] = Inhibition of N-terminal His6-tagged Plasmodium falciparum DHODH expressed in Escherichia coli BL21(DE3) cells using L-DHO as substrate by DCIP dye based assay
[3] = Intrinsic clearance in human liver microsomes assessed as per mg protein; format: ADME, Microsome
Albumin = Albumin (Homo sapiens, UniProt P02768); experiment: Binding affinity to albumin (unknown origin) by chromatographic method; format: ADME; conditions: albumin, read-out: PB (converted)
[4] = Intrinsic clearance in mouse liver microsomes assessed as per mg protein; format: ADME, Microsome; conditions: microsomes
physchem = conditions: octanol/water, pH 7.4

Dihydroorotate dehydrogenase (quinone), mitochondrial, sequence (Q02127 whole entry): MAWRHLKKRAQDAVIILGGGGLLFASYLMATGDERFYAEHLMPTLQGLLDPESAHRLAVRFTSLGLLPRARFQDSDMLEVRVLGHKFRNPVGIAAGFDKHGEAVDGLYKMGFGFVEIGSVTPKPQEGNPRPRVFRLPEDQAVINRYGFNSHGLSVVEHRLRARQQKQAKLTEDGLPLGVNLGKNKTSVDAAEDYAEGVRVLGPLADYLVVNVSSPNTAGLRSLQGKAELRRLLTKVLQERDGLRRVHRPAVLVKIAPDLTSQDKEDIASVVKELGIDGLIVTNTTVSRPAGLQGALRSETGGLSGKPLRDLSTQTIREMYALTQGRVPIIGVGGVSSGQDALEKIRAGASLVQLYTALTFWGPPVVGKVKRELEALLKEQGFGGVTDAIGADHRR
Albumin, sequence (P02768 whole entry): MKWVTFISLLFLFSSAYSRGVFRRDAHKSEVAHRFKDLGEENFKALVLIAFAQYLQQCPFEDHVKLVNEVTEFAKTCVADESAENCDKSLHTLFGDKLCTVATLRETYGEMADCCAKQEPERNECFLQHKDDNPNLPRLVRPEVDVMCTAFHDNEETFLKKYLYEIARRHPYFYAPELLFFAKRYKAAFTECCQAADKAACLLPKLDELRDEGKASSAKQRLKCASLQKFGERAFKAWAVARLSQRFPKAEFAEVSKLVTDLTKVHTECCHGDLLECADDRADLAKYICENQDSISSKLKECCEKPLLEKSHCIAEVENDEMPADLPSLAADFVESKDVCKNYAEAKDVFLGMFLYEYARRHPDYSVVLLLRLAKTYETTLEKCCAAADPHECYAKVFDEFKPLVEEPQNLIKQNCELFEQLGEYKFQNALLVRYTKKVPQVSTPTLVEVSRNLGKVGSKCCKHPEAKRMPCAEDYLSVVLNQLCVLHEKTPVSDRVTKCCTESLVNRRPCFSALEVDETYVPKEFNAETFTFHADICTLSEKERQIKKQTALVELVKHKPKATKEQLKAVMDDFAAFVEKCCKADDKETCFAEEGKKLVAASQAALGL

| Structure (SMILES) | IC50 [1] | EC50 (Plasmodium falciparum) | IC50 [2] | microsomal CLint [3] | fraction unbound (Albumin) | microsomal CLint [4] | logD (physchem) |
| --- | --- | --- | --- | --- | --- | --- | --- |
| CCCNC(=O)c1[nH]c(C)c(Cc2ccc(C(F)(F)F)cc2)c1C | > 100 µM | 110 nM | 300 nM | – | – | – | – |
| Cc1[nH]c(C(=O)NC2CC2)c(C)c1Oc1ccc(C(F)(F)F)nc1 | > 100 µM | 290 nM | 800 nM | 8 µL/min/mg | 0.573 | 22 µL/min/mg | 1.7 |
| Cc1c(Cc2ccc(C(F)(F)F)nc2)c[nH]c1C(=O)N1CCC1 | > 100 µM | 82 nM | 170 nM | < 7 µL/min/mg | 0.341 | 192 µL/min/mg | 2.7 |
| Cc1[nH]c(C(=O)N2CCCCC2)cc1Cc1ccc(C(F)(F)F)nc1 | – | > 20000 nM | > 100000 nM | 173 µL/min/mg | 0.125 | 93 µL/min/mg | 3.5 |
| Cc1[nH]c(C(=O)NC2CCNCC2)cc1Cc1ccc(C(F)(F)F)nc1 | – | > 10000 nM | > 100000 nM | – | – | – | – |
| Cc1[nH]c(C(=O)NC2CCOCC2)cc1Cc1ccc(C(F)(F)F)nc1 | – | > 10000 nM | > 100000 nM | – | – | – | – |
| COCc1c(Cc2ccc(C(F)(F)F)nc2)c[nH]c1C(=O)NC1CC1 | > 100 µM | 240 nM | 450 nM | – | – | – | – |
| CCOC(=O)c1[nH]cc(Cc2c(F)cc(C(F)(F)F)cc2F)c1C | – | > 10000 nM | > 30000 nM | – | – | – | – |
| CCNC(=O)c1[nH]c(C)c(Cc2ccc(C(F)(F)F)cc2)c1C | > 100 µM | 51 nM | 140 nM | – | – | – | – |
| Cc1c(C(O)c2ccc(C(F)(F)F)nc2)c[nH]c1C(=O)NC1CC1 (racemic) | > 100 µM | 44 nM | 74 nM | 20 µL/min/mg | 0.105 | 40 µL/min/mg | 3.2 |
| O=C(NC1CC1)c1cc(Cc2ccc(C(F)(F)F)nc2)c[nH]1 | > 100 µM | 500 to 1700 nM | 2500 nM | 31 µL/min/mg | 0.333 | 96 µL/min/mg | 2.6 |
| Cc1[nH]c(C(=O)NC2CC2)c(C)c1Cc1ccc(C(F)(F)F)nc1 | > 100 µM | 36 nM | – | 15 µL/min/mg | 0.172 | 33 µL/min/mg | 3 |
| Cc1[nH]c(C(=O)N(C)C)c(C)c1Cc1ccc(C(F)(F)F)nc1 | – | > 10000 nM | > 30000 nM | – | – | – | – |
| Cc1c(Cc2ccc(C(F)(F)F)nc2)c[nH]c1C(=O)NC(C)C | > 100 µM | 13 nM | 80 nM | – | – | – | – |
| Cc1[nH]c(C(=O)NC2CN(C)C2)cc1Cc1ccc(C(F)(F)F)nc1 | – | > 20000 nM | > 100000 nM | – | – | – | – |
| Cc1c(Cc2ccc(C(F)(F)F)nc2)c[nH]c1C(=O)NS(C)(=O)=O | – | > 100000 nM | > 100000 nM | – | – | – | – |
| Cc1c(Cc2ccc(C(F)(F)F)cc2Cl)c[nH]c1C(=O)NC1CC1 | > 100 µM | 20 nM | 17 nM | 14 µL/min/mg | 0.019 | 264 µL/min/mg | 4.1 |
| Cc1c(Cc2c(F)cc(C(F)(F)F)cc2F)c[nH]c1C(=O)NC1CC1 | – | 420 nM | 1200 nM | – | – | – | – |
| Cc1[nH]c(C(=O)NC2CC2)c(C)c1Cc1ccc(C(F)(F)F)cn1 | – | 340 nM | 440 nM | – | – | – | – |
| Cc1c(Cc2ccc(C(F)(F)F)nc2)c[nH]c1C(=O)N1CCCC1 | – | 4800 nM | 9800 nM | – | – | – | – |
| Cc1[nH]c(C(=O)O)c(C)c1Cc1ccc(C(F)(F)F)cc1 | – | > 10000 nM | – | – | – | – | – |

| Structure (SMILES) | IC50 [1] | EC50 (Plasmodium falciparum) | IC50 [2] | microsomal CLint [3] | fraction unbound (Albumin) | microsomal CLint [4] | logD (physchem) |
| --- | --- | --- | --- | --- | --- | --- | --- |
| Cc1c(Cc2ccc(C(F)(F)F)nc2)c[nH]c1C(=O)NC1CC(F)(F)C1 | – | 1300 nM | 3600 nM | – | – | – | – |
| CCOC(=O)c1[nH]c(C)c(Cc2ccc(C(F)(F)F)cn2)c1C | > 100 µM | 100 nM | 300 nM | – | – | – | – |
| O=C(NC1CC1)c1[nH]cc(Cc2ccc(C(F)(F)F)nc2)c1CO | – | 1200 nM | 4300 nM | – | – | – | – |
| CCOC(=O)c1[nH]cc(Cc2ccc(C(F)(F)F)cc2Cl)c1C | > 100 µM | 29 nM | 42 nM | – | – | – | – |
| Cc1c(Cc2ccc(C(F)(F)F)cc2F)c[nH]c1C(=O)NC1CC1 | > 100 µM | 16 nM | 44 nM | 15 µL/min/mg | 0.03 | 184 µL/min/mg | 3.8 |
| Cc1[nH]c(C(=O)NC2CCN(C)CC2)cc1Cc1ccc(C(F)(F)F)nc1 | – | > 10000 nM | > 100000 nM | – | – | – | – |
| Cc1c(C(=O)NC2CC2)[nH]c(C(F)(F)F)c1Cc1ccc(C(F)(F)F)nc1 | – | 770 nM | 1600 nM | – | – | – | – |
| CCOC(=O)c1[nH]c(C)c(Cc2cccc(OCC)c2)c1C | > 100 µM | 530 nM | 830 nM | – | – | – | – |
| Cc1c(Cc2ccc(C(F)(F)F)nc2)c[nH]c1C(=O)NC1CCC1 | > 100 µM | 27 nM | 44 nM | 29 µL/min/mg | 0.165 | 204 µL/min/mg | 3.2 |
| CCOC(=O)c1[nH]cc(Cc2ccc(C(F)(F)F)cc2)c1C | > 100 µM | 60 nM | 130 nM | – | – | – | – |
| Cc1c(Cc2cnc(C(F)(F)F)nc2)c[nH]c1C(=O)NC1CC1 | > 100 µM | 390 nM | – | < 7 µL/min/mg | – | – | 2.5 |
| Cc1[nH]c(C(=O)N2CCC2)c(C)c1Cc1ccc(C(F)(F)F)nc1 | – | 130 nM | 140 nM | 31 µL/min/mg | 0.228 | 53 µL/min/mg | 2.9 |
| CCCNC(=O)c1[nH]c(C)c(Cc2ccc(C(F)(F)F)nc2)c1C | > 100 µM | 47 nM | 72 nM | 172 µL/min/mg | 0.155 | 64 µL/min/mg | 3.2 |
| Cc1[nH]c(C(=O)NC2CNC2)cc1Cc1ccc(C(F)(F)F)nc1 | – | > 20000 nM | > 100000 nM | – | – | – | – |
| Cc1[nH]c(C(=O)NC2CC2)c(C)c1C(=O)c1ccc(C(F)(F)F)cn1 | – | 10000 to 20000 nM | > 100000 nM | 8 µL/min/mg | 0.496 | 24 µL/min/mg | 2.4 |
| CCOC(=O)c1[nH]c(C)c(Cc2ccc(OCC)cc2)c1C | > 100 µM | 230 to 250 nM | – | 188 µL/min/mg | – | 470 µL/min/mg | 4.5 |
| Cc1c(Cc2ccc(C(F)(F)F)nc2)c[nH]c1C(=O)NC(C)(C)C | > 100 µM | 51 nM | 110 nM | – | – | – | – |
| CCOC(=O)c1[nH]cc(Cc2ccc(C#N)nc2)c1C | – | 200 nM | 630 nM | – | – | – | – |
| CCOC(=O)c1[nH]cc(Cc2ccc(C(F)(F)F)cc2F)c1C | > 100 µM | 28 nM | 35 nM | – | – | – | – |
| Cc1c(Cc2ccc(C(F)(F)F)nc2)c[nH]c1C(=O)NCC(F)(F)F | > 100 µM | 44 to 59 nM | 210 nM | 15 µL/min/mg | 0.181 | 57 µL/min/mg | 3.3 |
| Cc1[nH]c(C(=O)NC(C)C)cc1Cc1ccc(C(F)(F)F)nc1 | – | 1900 nM | 2800 nM | – | – | – | – |

| Structure (SMILES) | IC50 [1] | EC50 (Plasmodium falciparum) | IC50 [2] | microsomal CLint [3] | fraction unbound (Albumin) | microsomal CLint [4] | logD (physchem) |
| --- | --- | --- | --- | --- | --- | --- | --- |
| CCCC(=O)c1[nH]cc(Cc2ccc(C(F)(F)F)nc2)c1C | > 100 µM | 65 nM | 98 nM | – | – | – | – |
| COc1cc(C(F)(F)F)ccc1Cc1c[nH]c(C(=O)NC2CC2)c1C | > 100 µM | 260 nM | 110 nM | – | – | – | – |
| Cc1[nH]c(C(=O)NC2CCC2)c(C)c1Cc1ccc(C(F)(F)F)cn1 | > 100 µM | 470 to 680 nM | 410 nM | – | – | – | – |
| Cc1c(Cc2ccc(C(F)(F)F)nc2)c[nH]c1C(=O)NC1(C(F)(F)F)CC1 | – | 3900 nM | 9300 nM | – | – | – | – |
| CCOC(=O)c1[nH]c(C)c(Cc2ccc(C(C)C)cc2)c1C | > 100 µM | 470 nM | 570 nM | – | – | – | – |
| Cc1[nH]c(C(=O)NC(C)(C)C)cc1Cc1ccc(C(F)(F)F)nc1 | – | 3500 nM | 5700 nM | – | – | – | – |
| Cc1c(Cc2cccnc2)c[nH]c1C(=O)NC1CC1 | – | > 10000 nM | > 100000 nM | 19 µL/min/mg | 0.268 | 138 µL/min/mg | – |
| Cc1[nH]c(C(=O)N2CCCC2)cc1Cc1ccc(C(F)(F)F)nc1 | – | > 10000 nM | > 100000 nM | 226 µL/min/mg | 0.185 | 138 µL/min/mg | 3.2 |
| CCOC(=O)c1c(C)c(Cc2ccc(C(F)(F)F)cc2)c(C)n1C | – | – | > 100000 nM | – | – | – | – |
| CCOC(=O)c1[nH]cc(Cc2ccc(C(F)(F)F)cc2OC)c1C | – | 810 nM | 1100 nM | – | – | – | – |
| Cc1[nH]c(C(=O)NC2CCC2)c(C)c1Cc1ccc(C(F)(F)F)nc1 | > 100 µM | 66 nM | 42 to 72 nM | – | – | – | – |
| Cc1c(Cc2ccc(C(F)(F)F)nc2)c[nH]c1C(=O)NC1CC(F)C1 (stereo unspecified) | – | 170 nM | 320 nM | – | – | – | – |
| CCN(CC)C(=O)c1[nH]c(C)c(Cc2ccc(C(F)(F)F)nc2)c1C | – | > 10000 nM | 13000 nM | – | – | – | – |
| Cc1c(Cc2ccc(C(F)(F)F)nc2)c[nH]c1C(=O)N1CC(F)C1 | > 100 µM | 51 nM | 120 nM | 7 µL/min/mg | – | 145 µL/min/mg | – |
| Cc1c(Cc2ccc(C(F)(F)F)nc2)c[nH]c1C(=O)C1CC1 | > 100 µM | 9.9 nM | 18 nM | – | – | – | – |
| Cc1[nH]c(C(=O)N2CCC2)c(C)c1Cc1ccc(C(F)(F)F)cn1 | > 100 µM | 1000 nM | 1800 nM | – | – | – | – |
| CCOC(=O)c1[nH]c(C)c(Cc2cc(OC)cc(OC)c2)c1C | > 100 µM | 10000 nM | 2300 nM | – | – | – | – |
| CCOC(=O)c1[nH]c(C)c(C(=O)c2ccc(C(F)(F)F)cn2)c1C | – | 6500 nM | 21000 nM | – | – | – | – |
| Cc1[nH]c(C(=O)NC2CC2)cc1Cc1cnc(C(F)(F)F)nc1 | – | > 10000 nM | > 100000 nM | < 7 µL/min/mg | 0.555 | 8 µL/min/mg | 2.5 |
| CCCCNC(=O)c1[nH]c(C)c(Cc2ccc(C(F)(F)F)cc2)c1C | > 100 µM | 710 nM | 9900 nM | – | – | – | – |
